The values below come from patent US20160295864A1 (priority 2014, published 2016).

The subject of assay [1] is Pyricularia oryzae (Magnaporthe grisea). In words: microbe, parasite or virus in culture. The conditions noted are these: read-out: Magnaporthe grisea inhibition. It is filed as cell-based.
The subject of assay [2] is Botrytis cinerea AARF-033. In words: Antifungal activity test against rice Botrytis cinerea (96 well microplate, conidia in glucose broth). It is filed as cell-based. The conditions noted are these: AARF033, 96 h, conidia 1×10^4 conidia/ml, stationary culturing for 4 days at 25° C. From the text:
Test specimens (compound (4a-2) and compound (4b-2)), (compound (4a-3) and compound (4b-3)), and reference compounds i.e. iprodione and Captan, were each independently dissolved in dimethyl sulfoxide (DMSO) and adjusted to a concentration of 10,000 ppm. The test solution was dispensed 2 μ/ml in a flat-bottomed 96 well microplate, and then, conidia of rice Botrytis cinerea (Botrytis cinerea AARF-033) cultured on glucose agar medium, suspended in glucose broth and adjusted to 1×10^4 conidia/ml, were dispensed 198 μ/mL, followed by stirring by a micromixer. At that time, the concentrations of the test specimen and the reference compound, were 100 ppm. Thereafter, the antimicrobial activities were evaluated by stationary culturing for 4 days at 25° C.

Molecules are shown by their SMILES. Some results are limits rather than exact numbers.

By inhibition is commonly meant how much of the control response was suppressed. With `CCCCNC(=O)n1c(NC(=O)OC)nc2ccccc21` [Benomyl, benomyl], in assay [1], the inhibition at 100 ppm was at least 95%. The compound `O=C1C2CC=CCC2C(=O)N1SC(Cl)(Cl)Cl` (stereo not shown) [Captan] yielded an inhibition at 100 ppm in assay [2] of at least 95%.

As to `CO/N=C(/C1=NOCCO1)c1ccccc1Oc1ncnc(Oc2ccccc2Cl)c1F` [Fluoxastrobin, fluoxastrobin], in assay [1], the inhibition at 100 ppm is at least 95%. With `CC(C)NC(=O)N1CC(=O)N(c2cc(Cl)cc(Cl)c2)C1=O` [Iprodione, iprodione], the inhibition at 100 ppm in assay [2] was at least 95%.
